In US11970448B2, “Monomers capable of dimerizing in an aqueous solution, and methods of using same” (CORNELL UNIVERSITY, priority 2011, dated 2024):
Like-named read-outs stand apart in the source and are kept apart here.

Target: T1, recominbant human tryptase, beta, from lung (Homo sapiens, UniProt P20231)
T1 construct: purchased Promega or Enzo Life Sciences G5631 or BML-SE418
Assay: Inhibition of tryptase activity by monomers and multimers (Boc-Gln-Ala-Arg-AMC fluorescence)
Assay type: biochemical
Conditions: monomers against tryptase
Experimental: Stock solutions of recominbant human tryptase, beta, from lung (Promega: catalog number G5631, or Enzo Life Sciences: catalog number BML-SE418) were made at 30 μM, in solution with 5 μM heparin sulfate and 1 M NaCl. Monomer tryptase inhibitor stock solutions were made at 50 mM in DMSO. Test substance plates were made at 1.2× the final concentration in assay buffer (50 mM HEPES, 150 mM NaCl, 100 μM EDTA, pH 7.4, 0.02% Tween-20). A final concentration of 1 nM tryptase was used. When required, test substances were diluted in water immediately before use in 10-fold serial dilutions. After the indicated incubation time, the test subtance-tryptase solution at 1.2× concentration, was diluted into assay buffer containing a final concentration of 200 μM N-tert-butoxycarbonyl-Gln-Ala-Arg-AMC HBr [AMC=7-amino-4-methylcoumarin] (Boc-Gln-Ala-Arg-AMC; Enzo Life Sciences: catalog number BML-P237) to a final volume of 50 μl in black opaque round bottom 96 well plates (Corning, catalog number 3792). The release of fluorescent AMC was immediately measured every 30 seconds over 15-30 minutes at an excitation wavelength of 367 nm, monitoring emission at 468 nm on a Spectramax M5 (Molecular Devices) microplate reader. The Softmax Pro (Molecular Devices) and Graphpad prism software were used to determine Vmax, and concentration-response curve IC50s, respectively.

[1] = Table 5, read-out: Monomer IC50 range
[2] = read-out: IC50 range group of additional monomers (boronic acid, benzooxaborole, ligands)
[3] = entry marked (1:10), read-out: IC50 range group of additional monomers marked (1:10)

T1 sequence (P20231 31-275): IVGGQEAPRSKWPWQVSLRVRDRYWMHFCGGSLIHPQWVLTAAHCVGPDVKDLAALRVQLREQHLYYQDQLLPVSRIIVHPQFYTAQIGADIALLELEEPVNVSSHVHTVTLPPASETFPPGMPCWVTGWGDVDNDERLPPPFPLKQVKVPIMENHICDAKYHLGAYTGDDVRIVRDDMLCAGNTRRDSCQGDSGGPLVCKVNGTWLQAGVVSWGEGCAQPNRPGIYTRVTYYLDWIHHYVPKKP

| Compound | IC50 [1] | IC50 [2] | IC50 [3] |
| --- | --- | --- | --- |
| NCc1cccc(C2CCN(C(=O)Cc3ccc(O)c(F)c3)CC2)c1 [T54A, 1-(4-(3-(aminomethyl)phenyl)piperidin-1-yl)-2-(3-fluoro-4-hydroxyphenyl)ethanone] | 1000 to 10000 nM | – | – |
| NCc1ccc2c(c1)C1(CCN(C(=O)Cc3ccc(B(O)O)c(F)c3)CC1)CO2 [T54BASPIRO] | – | 1000 to 10000 nM | – |
| NCc1cccc(C2CCN(C(=O)Cc3ccc(B(O)O)c(F)c3)CC2)c1 [T54BA] | – | 1000 to 10000 nM | – |
| CC(C)(C)OC(=O)NCc1cccc(C2CCN(C(=O)c3cccc(NC(=O)C(=O)C(C)(C)O)c3)CC2)c1 [T55, tert-butyl 3-(1-(3-(3-hydroxy-3-methyl-2-oxobutanamido)benzoyl)piperidin-4-yl)benzylcarbamate] | 0.1 to 1000 nM | – | – |
| CC(C)(C)OC(=O)NCc1cccc(C2CCN(C(=O)c3cccc(NC(=O)C(O)C(C)(C)O)c3)CC2)c1 (centres unmarked) [T55D, tert-butyl 3-(1-(3-(2,3-dihydroxy-3-methylbutanamido)benzoyl)piperidin-4-yl)benzylcarbamate] | 0.1 to 1000 nM | – | 0.1 to 1000 nM |
| NCc1cccc(C2CCN(C(=O)c3cc4c(B(O)O)cccc4s3)CC2)c1 [T56, 2-(4-(3-(aminomethyl)phenyl)piperidine-1-carbonyl)benzo[b]thiophen-4-ylboronic acid] | 0.1 to 1000 nM | 0.1 to 1000 nM | – |
| NCc1cccc(C2CCN(C(=O)c3cc4c(Br)cccc4s3)CC2)c1 [T56A, (4-(3-(aminomethyl)phenyl)piperidin-1-yl)(4-bromobenzo[b]thiophen-2-yl)methanone] | 0.1 to 1000 nM | – | – |
| NCc1cccc(C2CCN(C(=O)Cc3cc(B(O)O)ccc3F)CC2)c1 [T57, 3-(2-(4-(3-(aminomethyl)phenyl)piperidin-1-yl)-2-oxoethyl)-4-fluorophenylboronic acid] | 1000 to 10000 nM | 1000 to 10000 nM | – |
| NCc1cccc(C2CCN(C(=O)Cc3ccc(B(O)O)cc3F)CC2)c1 [T58, 4-(2-(4-(3-(aminomethyl)phenyl)piperidin-1-yl)-2-oxoethyl)-3-fluorophenylboronic acid] | 1000 to 10000 nM | 1000 to 10000 nM | – |
| NCc1cccc(C2CCN(C(=O)c3cc4ccc(B(O)O)cc4[nH]3)CC2)c1 [T59, 2-(4-(3-(aminomethyl)phenyl)piperidine-1-carbonyl)-1H-indol-6-ylboronic acid] | 1000 to 10000 nM | 1000 to 10000 nM | – |
| NCc1cccc(C2CCN(C(=O)c3ccc(O)c(CO)c3)CC2)c1 [T65, (4-(3-(aminomethyl)phenyl)piperidin-1-yl)(4-hydroxy-3-(hydroxymethyl)phenyl)methanone] | 0.1 to 1000 nM | 0.1 to 1000 nM | – |
| NCc1cccc(C2CCN(C(=O)c3ccc(O)c(C(N)=O)c3)CC2)c1 [T66, 5-(4-(3-(aminomethyl)phenyl)piperidine-1-carbonyl)-2-hydroxybenzamide] | 0.1 to 1000 nM | 0.1 to 1000 nM | – |
| CC1(O)CN(c2cccc(C(=O)N3CCC(c4cccc(CN)c4)CC3)c2)CC1(C)O (centres unmarked) [T67, (4-(3-(aminomethyl)phenyl)piperidin-1-yl)(3-(3,4-dihydroxy-3,4-dimethylpyrrolidin-1-yl)phenyl)methanone] | 0.1 to 1000 nM | 0.1 to 1000 nM | – |
| NCc1cccc(C2CCN(C(=O)c3ccc(O)c(O)c3O)CC2)c1 [T68, (4-(3-(aminomethyl)phenyl)piperidin-1-yl)(2,3,4-trihydroxyphenyl)methanone] | 1000 to 10000 nM | 1000 to 10000 nM | – |
| NCc1cccc(C2CCN(C(=O)c3cc(O)c(O)c(O)c3)CC2)c1 [T69, (4-(3-(aminomethyl)phenyl)piperidin-1-yl)(3,4,5-trihydroxyphenyl)methanone] | 1000 to 10000 nM | 1000 to 10000 nM | – |
| NCc1cccc(C2CCN(C(=O)c3cccc(NC(=O)c4cccc(O)c4O)c3)CC2)c1 [T70, N-(3-(4-(3-(aminomethyl)phenyl)piperidine-1-carbonyl)phenyl)-2,3-dihydroxybenzamide] | 0.1 to 1000 nM | 0.1 to 1000 nM | – |

| Compound | IC50 [1] | IC50 [2] | IC50 [3] |
| --- | --- | --- | --- |
| NCc1cccc(C2CCN(C(=O)c3cccc(NC(=O)c4ccc(O)c(O)c4)c3)CC2)c1 [T71, N-(3-(4-(3-(aminomethyl)phenyl)piperidine-1-carbonyl)phenyl)-3,4-dihydroxybenzamide] | 0.1 to 1000 nM | 0.1 to 1000 nM | – |
| CC(O)(COc1cccc(C(=O)N2CCC(c3cccc(CN)c3)CC2)c1)C(=O)O (centres unmarked) [T72, 3-(3-(4-(3-(aminomethyl)phenyl)piperidine-1-carbonyl)phenoxy)-2-hydroxy-2-methylpropanoic acid] | 0.1 to 1000 nM | 0.1 to 1000 nM | – |
| NCc1cccc(C2CCN(C(=O)c3cccc(OCC(O)(C(=O)O)c4ccccc4)c3)CC2)c1 (centres unmarked) [T73, 3-(3-(4-(3-(aminomethyl)phenyl)piperidine-1-carbonyl)phenoxy)-2-hydroxy-2-phenylpropanoic acid] | 0.1 to 1000 nM | 0.1 to 1000 nM | – |
| NCc1cccc(C2CCN(C(=O)c3ccc(CO)c(O)c3)CC2)c1 [T74, (4-(3-(aminomethyl)phenyl)piperidin-1-yl)(3-hydroxy-4-(hydroxymethyl)phenyl)methanone] | 0.1 to 1000 nM | – | 0.1 to 1000 nM |
| NCc1ccc2c(c1)C1(CCN(C(=O)c3ccc(CO)c(O)c3)CC1)CO2 [T74SPIRO] | – | 0.1 to 1000 nM | – |
| NCc1cccc(C2CCN(C(=O)c3ccc(C(N)=O)c(O)c3)CC2)c1 [T75, 4-(4-(3-(aminomethyl)phenyl)piperidine-1-carbonyl)-2-hydroxybenzamide] | 1000 to 10000 nM | 1000 to 10000 nM | – |
| CONC(=O)c1ccc(C(=O)N2CCC(c3cccc(CN)c3)CC2)cc1O [T75A, 4-(4-(3-(aminomethyl)phenyl)piperidine-1-carbonyl)-2-hydroxy-N-methoxybenzamide] | 0.1 to 1000 nM | 0.1 to 1000 nM | – |
| CC(C)(C)ONC(=O)c1ccc(C(=O)N2CCC3(CC2)COc2ccc(CN)cc23)cc1O [T75AOTBSPIRO] | – | 0.1 to 1000 nM | – |
| CC(C)(C)ONC(=O)c1ccc(C(=O)N2CCC(c3cccc(CN)c3)CC2)cc1O [T75AOTB] | – | 1000 to 10000 nM | – |
| NCc1ccc2c(c1)C1(CCN(C(=O)c3ccc(C(=O)NOc4ccccc4)c(O)c3)CC1)CO2 [T75APSPIRO] | – | 0.1 to 1000 nM | – |
| NCc1cccc(C2CCN(C(=O)c3ccc(C(=O)NOc4ccccc4)c(O)c3)CC2)c1 [T75AP] | – | – | 0.1 to 1000 nM |
| CONC(=O)c1ccc(C(=O)N2CCC3(CC2)COc2ccc(CN)cc23)cc1O [T75ASPIRO] | – | – | 0.1 to 1000 nM |
| NCc1cccc(C2CCN(C(=O)/C=C/c3ccc(C(N)=O)c(O)c3)CC2)c1 [T76, (E)-4-(3-(4-(3-(aminomethyl)phenyl)piperidin-1-yl)-3-oxoprop-1-enyl)-2-hydroxybenzamide] | 0.1 to 1000 nM | 0.1 to 1000 nM | – |
| CONC(=O)c1ccc(/C=C/C(=O)N2CCC(c3cccc(CN)c3)CC2)cc1O [T76A, (E)-4-(3-(4-(3-(aminomethyl)phenyl)piperidin-1-yl)-3-oxoprop-1-enyl)-2-hydroxy-N-methoxybenzamide] | 0.1 to 1000 nM | 0.1 to 1000 nM | – |
| NCc1cccc(C2CCN(C(=O)c3cc(O)c(O)cc3O)CC2)c1 [T77, (4-(3-(aminomethyl)phenyl)piperidin-1-yl)(2,4,5-trihydroxyphenyl)methanone] | 10000 to 65000 nM | 10000 to 65000 nM | – |
| NCc1cccc(C2CCN(C(=O)c3cc(O)c(O)c(Cl)c3)CC2)c1 [T78, (4-(3-(aminomethyl)phenyl)piperidin-1-yl)(3-chloro-4,5-dihydroxyphenyl)methanone] | 0.1 to 1000 nM | 0.1 to 1000 nM | – |
